Laboratory results from patent US5968751A, “Method for detecting the presence of protein C antibody in a fluid sample” (The Scripps Research Institute, priority 1997, dated 1999).
Like-named read-outs stand apart in the source and are kept apart here. No end group written: not given here.

How the values were obtained:
Assay type in all cases: biochemical
Factor IXa = Factor IXa (Homo sapiens, UniProt P00740); experiment: Factor IXa-1 Stage clotting assay
Procedure: The Factor IXa-1 Stage assay was conducted essentially as the Factor Xa-1 Stage clotting assay above, except that Factor Xa was omitted, and Factor IXa was added in its place. In that assay, the IC50 for peptides X404-418, X415-429, IX395-409, IX400-414, IX315-330, and IX321-335 were 50, 30, 25, 50, 30 and 30.

tenase = target: T1, tenase (Homo sapiens, UniProt P00740); experiment: tenase assay (Factor Xa generation); details: read-out: IC50 inhibition of tenase
T1 construct: 30 μl of 3.5 nM factor IXaβ (Enzyme Research Labs) in BBS+OV; purchased Enzyme Research Labs (factor IXaβ, factor X); Armour Pharmaceutical, Chicago (Monoclate P)
Procedure: The tenase assay was conducted both in the presence and absence of Factor VIIIa. The procedure for the tenase assay varied depending on this variable and is described hereafter.
Peptides prepared in Example 1 were dissolved in water and then 1/2 into 50 mM Barbital, 200 mM NaCl, 0.2% NaN3, 2.5 mg/ml Ovalbumin (5 times recrystallized, salt free, from American Biorganics Inc., New York, pH=7.5). […]. Before using them, they were made 250 μM into BBs +1.25 mg/ml Ovalbumin (BBS+OV) containing CaCl2 for a final concentration of 25 mM and they were preincubated for 10 minutes at 37° C. These vesicles were allowed to cool to room temperature before being added to the reaction mixture. Monoclate P (Armour Pharmaceutical, Chicago) 114 U VIII:C/ml frozen in water was thawed at 37° C. and immediately diluted to 6 U/ml into BBS+OV (22° C.). A 0.35 nM thrombin-containing solution (Enzyme Research Labs., Southbend, Ind.) was prepared by admixing 1/100 volume of stock solution containing 35 nM in BBS+OV, and maintained for 3 minutes at 22° C. Thrombin activity was stopped by adding 1/100 volume of a 50 μM stock solution in 1 mM HCl of Phe-Pro-Arg-Chloromethyl ketone (PPACK, Bachem Feinchmikallen AG, Bubendorf, Switzerland). […] The thrombin treated Monoclate P was used immediately in the Xa generation assay.
For the assay, 30 μl of peptide dilutions or BBS+OV as 0 μM peptide control were admixed with 30 μl of thrombin-treated Monoclate P and maintained 10 minutes at 22° C. Then 30 μl of Cacl2 -phospholipid vesicles prepared as described above were added, followed immediately by 30 μl of 3.5 nM factor IXaβ (Enzyme Research Labs) in BBS+OV. The reaction was started by adding 30 μl of 250 nM factor X (Enzyme Research Labs) in BBS+OV. All reagents were at 22° C.
Aliquots of 20 μl were drawn at time 0, 1, 2, 3, 4 and 5 minutes of maintenance at 22° C. and diluted to 160 μl of 50 mM TrisHCl, 100 mM NaCl, 5 mM EDTA and 0.1 mg/ml Ovalbumin pH=8.0. Once all aliquots were drawn, 20 μl 2.0 mM S-2765 were added and the increase of A 405 at 22° C. was recorded in a model EL 312 Microplate Biokinetics Reader (BIO-TEK Instruments Inc., Vermont).
No amidolytic activity was observed when factor X was omitted from the reaction mixture.
Phospholipid vesicles prepared as described above were admixed with BBS+OV containing CaCl2 to obtain final concentrations of 312.5 μM vesicles and 20 mM CaCl2, and were premaintained for 10 minutes at 37° C. Before admixing, all the reagents were maintained for 5 minutes in a 37° C. waterbath.
For the assay, 100 μl of the phospholipid CaCl2 mix were admixed with 100 μl of peptide dilutions in BBS+OV or BBS+OV (as 0 μM peptide control) and 25 μl of 100 nM factor IXaβ in BBS+OV. The reaction was started immediately by adding 25 μl of 10 μM factor X in BBS+OV. All experiments were done at 37° C.
Aliquots of 40 μl were drawn at time 0, 5, 10, 15, 20 and 25 minutes of incubation at 37° C. and diluted to 140 μl 50 mM TrisHCl, 100 mM NaCl, 10 mM EDTA, and 1.25 mg/ml Ovalbumin pH=8.0. Once all aliquots were drawn, 20 μl 20.0 mM S-2765 were added and the increase of A 405 at 22° C. was recorded in a model EL 312 Microplate Biokinetics Reader.

Factor Xa = target: T2, Factor Xa (Homo sapiens, UniProt P00742); experiment: Factor Xa clotting activity in NHP without added APC (Factor Xa-1 Stage clotting assay)
T2 construct: purchased Enzyme Research Laboratories, Southbend, Ind

APC = APC (Homo sapiens, UniProt P04070); experiment: APTT and Xa-1-stage coagulation assays, inhibition of APC anticoagulant activity; design: Protein C consists of a 155 amino acid residue light chain and a 262 amino acid residue heavy chain; from tissue; host or cells: human plasma factor IX concentrate; details: read-out: IC90 ** μM (concentration of peptide that inhibits 90% of APC anticoagulant activity)
Procedure: The effect of the synthetic peptides on APC anticoagulant activity were determined using the APTT assay in the presence of either normal citrate anticoagulated plasma (NHP) or protein S depleted plasma (PSDP). The assays were performed essentially as described. See Marlar et al., Blood, 59:1067-1072 […]; Suzuki et al., J. Biol. Chem., 258:163-168 (1983); Gruber et al., Blood, 73:639-642 (1989); Ohlin et al., Biochem., 29:644-651 (1990). NHP was purchased from George King Bio-Medical, Inc. (Overland Park, Kans.). PSDP was prepared from a normal human citrate-anticoagulated plasma pool from ten healthy donors. Protein S was immunodepleted from the NHP by immunoaffinity chromatography of NHP over an anti-protein S antibody column to form PSDP. The anti-protein S antibody column was prepared by coupling 100 mg of a monoclonal, high-affinity, calcium-independent anti-PS antibody, designated S7, to 30 ml of CNBr-activated Sepharose 4B (Pharmacia) as described in Example 2cl).
For the APTT assay, APC was prepared as described in Example 2c2). […] The concentration of the APC used in the assay was initially optimized with respect to the sensitivity of the assay towards APC-induced prolongation of clotting time compared to clotting time without APC.
Once the optimal concentration of APC was determined, peptides from the heavy and light chains of PC and control scrambled peptides listed below in Example 5a2) in Tables 6 and 7 were then separately admixed for a final concentration of 500 μM with 10 nM APC in 100 μl of TBS-BSA at pH 7.4 to form peptide-APC admixtures. Peptides were prepared as described in Example 1. The resulting admixtures were maintained for ten minutes at 37° C. Separate aliquots of peptides maintained under the same conditions in the absence of APC served as controls for the inhibitory effect of synthetic peptides on APC anticoagulant activity. After the maintenance period, 100 μl of NHP and 100 μl APTT-reagent Thrombosil (Ortho Diagnostics, Raritan, N.J.) were admixed into each peptide admixture and maintained for 200 seconds at 37° C. to form a pre-coagulation admixture. In some experiments, PSDP was used in the place of NHP to determine the effect of Protein S on the assay system. Coagulation was then initiated by the admixture of 100 μl of 30 mM CaCl2 in TBS prewarmed to 37° C. to each of the pre-coagulation admixtures. The time for clot formation was measured by an Electra 700 Automatic Coagulation Timer (Medical Laboratory Automation, Inc., Mount Vernon, N.Y.). Each peptide's effect was determined in duplicate.
For peptides at a concentration of 500 μM that inhibited at least 50% of APC anticoagulant activity, analysis of dose-response was subsequently conducted.
For testing the inhibition of the synthetic peptides on APC activity described above, Xa-1-stage coagulation assays were also performed as described. See Seegers et al., Thrombosis Res., 13:233-243 (1978); Marlar et al., supra; and Walker et al., J. Biol. Chem., 265:1484-1489 (1990).

T1 sequence (P00740 47-191): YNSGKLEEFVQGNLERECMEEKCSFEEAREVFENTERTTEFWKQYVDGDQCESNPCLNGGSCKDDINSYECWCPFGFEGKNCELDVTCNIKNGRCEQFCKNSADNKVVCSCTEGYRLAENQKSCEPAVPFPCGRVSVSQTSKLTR
T1 sequence (P00740 227-461): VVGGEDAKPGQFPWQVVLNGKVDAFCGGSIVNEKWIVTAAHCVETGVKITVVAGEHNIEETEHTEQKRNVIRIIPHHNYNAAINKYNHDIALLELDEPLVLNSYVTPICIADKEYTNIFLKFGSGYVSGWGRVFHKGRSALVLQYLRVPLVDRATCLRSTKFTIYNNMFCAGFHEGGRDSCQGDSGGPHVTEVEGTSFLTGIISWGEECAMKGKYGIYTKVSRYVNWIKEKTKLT
Sequence of Factor IXa (P00740 47-191 limits assumed): as the sequence (P00740 47-191) above
Sequence of Factor IXa (P00740 227-461 limits assumed): as the sequence (P00740 227-461) above
T2 sequence (P00742 41-179 limits assumed): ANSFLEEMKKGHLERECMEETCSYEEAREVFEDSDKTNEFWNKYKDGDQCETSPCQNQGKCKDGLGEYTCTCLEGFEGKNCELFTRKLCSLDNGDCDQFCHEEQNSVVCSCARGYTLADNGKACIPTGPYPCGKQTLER
T2 sequence (P00742 235-488 limits assumed): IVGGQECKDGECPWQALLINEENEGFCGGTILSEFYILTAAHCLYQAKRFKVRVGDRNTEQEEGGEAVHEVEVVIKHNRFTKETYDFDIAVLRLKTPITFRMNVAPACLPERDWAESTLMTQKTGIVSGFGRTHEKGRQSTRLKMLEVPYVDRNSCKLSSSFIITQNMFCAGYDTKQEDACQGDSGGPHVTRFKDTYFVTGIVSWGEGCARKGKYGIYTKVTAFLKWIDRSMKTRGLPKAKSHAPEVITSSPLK
Sequence of APC (P04070 43-197 limits assumed): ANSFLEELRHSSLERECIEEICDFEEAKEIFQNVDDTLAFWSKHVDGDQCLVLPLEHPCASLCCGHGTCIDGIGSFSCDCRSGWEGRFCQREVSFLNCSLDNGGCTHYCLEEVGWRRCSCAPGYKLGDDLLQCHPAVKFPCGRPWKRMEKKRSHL
Sequence of APC (P04070 212-450 limits assumed): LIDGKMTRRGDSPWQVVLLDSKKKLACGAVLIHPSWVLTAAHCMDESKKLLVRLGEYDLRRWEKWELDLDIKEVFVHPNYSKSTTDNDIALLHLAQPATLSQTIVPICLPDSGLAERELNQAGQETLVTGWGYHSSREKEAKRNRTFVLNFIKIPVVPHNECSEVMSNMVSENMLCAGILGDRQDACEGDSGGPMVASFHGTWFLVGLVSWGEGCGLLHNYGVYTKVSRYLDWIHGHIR

Substance | IC50 (Factor IXa) | IC50 (tenase; presence of Factor VIIIa) | IC50 (Factor Xa) | IC50 (tenase; absence of VIIIa) | IC90 (APC)
ARKGKYGIYTKVTAF-NH2 [X404-418, Ala-Arg-Lys-Gly-Lys-Tyr-Gly-Ile-Tyr-Thr-Lys-Val-Thr-Ala-Phe] | 50 µM | ~150 µM | 50 µM |  | 
EKGRQSTRLKMLEVPY-NH2 [X329-344, Glu-Lys-Gly-Arg-Gln-Ser-Thr-Arg-Leu-Lys-Met-Leu-Glu-Val-Pro-Tyr] |  |  | 500 µM |  | 
GKGQPSVLQVVNLPI-NH2 [PT473-487, Gly-Lys-Gly-Gln-Pro-Ser-Val-Leu-Gln-Val-Val-Asn-Leu-Pro-Ile] |  |  | 25 µM |  | 
HKGRSALVLQYLRVPL-NH2 [IX315-330, His-Lys-Gly-Arg-Ser-Ala-Leu-Val-Leu-Gln-Tyr-Leu-Arg-Val-Pro-Leu] | 30 µM | ~2 µM |  | 40 to 60 µM | 
KVSRYVNWIKEKTKL-NH2 [IX400-414, Lys-Val-Ser-Arg-Tyr-Val-Asn-Trp-Ile-Lys-Glu-Lys-Thr-Lys-Leu] | 50 µM | 100 to 140 µM |  |  | 
LVLQYLRVPLVDRAT-NH2 [IX321-335, Leu-Val-Leu-Gln-Tyr-Leu-Arg-Val-Pro-Leu-Val-Asp-Arg-Ala-Thr] | 30 µM | 100 to 140 µM |  |  | 
NLKETWTANVGKGQP [PT463-478] |  |  | > 500 µM |  | 
QVVNLPIVERPVSKD-NH2 [PT481-495, Gln-Val-Val-Asn-Leu-Pro-Ile-Val-Glu-Arg-Pro-Val-Ser-Lys-Asp] |  |  | > 500 µM |  | 
VLNFIKIPVVPHNEC-NH2 [PC317-331] |  |  |  |  | 500 µM
VTAFLKWIDRSMKTR-NH2 [X415-429, Val-Thr-Ala-Phe-Leu-Lys-Trp-Ile-Asp-Arg-Ser-Met-Lys-Thr-Arg] | 30 µM | ~45 µM | 115 µM |  | 
YGFYTHVFRLKKWIQ-NH2 [PT557-571, Tyr-Gly-Phe-Tyr-Thr-His-Val-Phe-Arg-Leu-Lys-Lys-Trp-Ile-Gln] |  |  | 50 µM |  | 
YGIYTKVSRYVNWIK-NH2 [IX395-409, Tyr-Gly-Ile-Tyr-Thr-Lys-Val-Ser-Arg-Tyr-Val-Asn-Trp-Ile-Lys] | 25 µM | ~6 µM |  | 40 to 60 µM | 
